Data from BindingDB's records for doi:10.1021/jm990250u (Hoechst Marion Roussel, 1999).

Each compound was assayed against Stromelysin-1 (Homo sapiens, UniProt P08254) (assay: Inhibitory concentration against human matrix metalloprotease-3 (MMP-3)).
Chain of Stromelysin-1 (P08254 whole entry): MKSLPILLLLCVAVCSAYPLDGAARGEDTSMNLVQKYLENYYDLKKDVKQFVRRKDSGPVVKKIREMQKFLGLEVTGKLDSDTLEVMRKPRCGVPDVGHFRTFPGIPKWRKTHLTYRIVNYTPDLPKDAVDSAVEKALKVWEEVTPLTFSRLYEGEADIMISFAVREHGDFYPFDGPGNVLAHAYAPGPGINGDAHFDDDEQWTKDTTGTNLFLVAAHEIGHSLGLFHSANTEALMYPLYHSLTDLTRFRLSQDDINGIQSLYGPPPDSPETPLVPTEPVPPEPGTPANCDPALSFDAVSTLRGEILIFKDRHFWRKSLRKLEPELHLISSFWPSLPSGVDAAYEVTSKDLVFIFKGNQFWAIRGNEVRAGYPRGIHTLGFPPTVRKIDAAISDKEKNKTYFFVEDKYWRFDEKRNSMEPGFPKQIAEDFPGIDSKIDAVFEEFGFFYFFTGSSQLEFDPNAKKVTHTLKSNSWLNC

IC50, 10 µM:
O=C(NO)C1Cc2ccccc2CN1S(=O)(=O)Cc1ccccc1 (configuration not stated) [2-Phenylmethanesulfonyl-1,2,3,4-tetrahydro-isoquinoline-3-carboxylic acid hydroxyamide]
O=C(NO)C1Cc2ccccc2CN1S(=O)(=O)c1cc(S(=O)(=O)c2ccccc2)cs1 (configuration not stated) [2-(4-Benzenesulfonyl-thiophene-2-sulfonyl)-1,2,3,4-tetrahydro-isoquinoline-3-carboxylic acid hydroxyamide]
CSc1nccc(-c2ccc(S(=O)(=O)N3Cc4ccccc4CC3C(=O)O)s2)n1 (configuration not stated)
COc1ccc(S(=O)(=O)N2Cc3ncn(C)c3C[C@@H]2C(=O)O)cc1 [(R)-5-(4-Methoxy-benzenesulfonyl)-1-methyl-4,5,6,7-tetrahydro-1H-imidazo[4,5-c]pyridine-6-carboxylic acid]
O=C(Nc1cccc(S(=O)(=O)N2Cc3ccccc3CC2C(=O)NO)c1)c1ccccc1O (configuration not stated) [2-[3-(2-Hydroxy-benzoylamino)-benzenesulfonyl]-1,2,3,4-tetrahydro-isoquinoline-3-carboxylic acid hydroxyamide]
O=C(NO)C1Cc2ccccc2CN1S(=O)(=O)c1cc(Br)c(Br)s1 (configuration not stated) [2-(4,5-Dibromo-thiophene-2-sulfonyl)-1,2,3,4-tetrahydro-isoquinoline-3-carboxylic acid hydroxyamide]
CCCCCCCCCCCCCCCCS(=O)(=O)N1Cc2ccccc2CC1C(=O)NO (configuration not stated) [2-(Hexadecane-1-sulfonyl)-1,2,3,4-tetrahydro-isoquinoline-3-carboxylic acid hydroxyamide]
